# According to PMC5500849, “Cobamide-mediated enzymatic reductive dehalogenation via long-range electron transfer” (Nature Communications, 2017):
# How the values were obtained:
# PceA (PceA–Strep) [1] = target: T1, PceA (PceA–Strep) (Sulfurospirillum multivorans, UniProt O68252); assay: crystal structure, soaked crystal; assay type: binding; conditions: [Co(II)] state
# T1 construct: C-terminal Strep-tag II, homologously produced in S. multivorans GD21 (genomic pceAB), Strep-Tactin purified; crystals from mature enzyme (Tat signal peptide removed); holo with norpseudo-B12 and two [4Fe-4S] clusters
# T1 sequence (O68252 38-501): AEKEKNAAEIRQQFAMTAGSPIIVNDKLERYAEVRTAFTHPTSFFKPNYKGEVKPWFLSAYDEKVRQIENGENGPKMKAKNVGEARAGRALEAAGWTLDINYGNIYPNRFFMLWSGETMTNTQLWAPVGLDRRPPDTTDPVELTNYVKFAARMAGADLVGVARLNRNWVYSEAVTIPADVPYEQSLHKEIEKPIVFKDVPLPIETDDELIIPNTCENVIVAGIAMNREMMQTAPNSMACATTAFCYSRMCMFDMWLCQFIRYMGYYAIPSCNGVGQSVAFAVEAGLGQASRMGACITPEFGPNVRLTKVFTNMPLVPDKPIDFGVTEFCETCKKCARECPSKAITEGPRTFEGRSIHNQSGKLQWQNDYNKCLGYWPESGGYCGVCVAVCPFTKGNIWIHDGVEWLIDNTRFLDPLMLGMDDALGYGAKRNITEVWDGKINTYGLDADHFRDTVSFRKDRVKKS
# PceA (PceA–Strep) [2] = target: T1, PceA (PceA–Strep); assay: inhibition of 4-BP dehalogenation; assay type: biochemical; conditions: 47 nM enzyme, dark 2 min; covalent, alkylates cobamide [Co(I)], reversed by light
smiles,measurement,setting,value
Oc1cccc(Br)c1 [3-BP],"crystal structure, soaked crystal",PceA (PceA–Strep) [1]; enzyme with methoxybenzimidazolyl-norcobamide instead of norpseudo-B12,5MAA (3-BP)
Oc1cccc(Cl)c1 [3-CP],"crystal structure, soaked crystal","PceA (PceA–Strep) [1]; active site, not dehalogenated",5M8Y (3-CP)
Oc1ccc(Cl)cc1 [4-CP],"crystal structure, soaked crystal","PceA (PceA–Strep) [1]; active site, not dehalogenated",5M8W (4-CP)
Oc1ccc(I)cc1 [4-IP],"crystal structure, soaked crystal","PceA (PceA–Strep) [1]; active site, also surface groove site",5MA2 (4-IP)
CCCI [propyl iodide],complete inhibition at 100 μM,PceA (PceA–Strep) [2],complete inhibition of the PceA-mediated 4-BP dehalogenation by propyl iodide in the dark
